# Experimental data: US10149879B2 (priority 2014, dated 2018)
# Legend:
# βTC6 insulinoma cell = assay: Cell viability assay in βTC6 insulinoma cell line; type: cell-based; settings: for Cell viability: βTC6, control 100.00
# From the text: Cell Viability Assay in βTC6 Insulinoma Cell Lime Following—
# L6-myotubes = assay: Anti-diabetic activity (glucose consumption) in L6-myotubes; type: cell-based; parameters: Anti-diabetic activity (glucose consumption): unit not given here; settings: for Anti-diabetic activity (glucose consumption): L6-myotubes, control 1.00
# [1] = system: nor-epinephrine, serotonin and dopamine in whole brain; settings: mice; acute administration 5 mg/kg ip; cited from earlier work
# [2] = system: streptozotocin (STZ) induced diabetes animal model; assay: Urine volume and glyceuira (Benedict reagent); type: in vivo, rats; parameters: key to Glyceuria: (+++) abundant; (++) moderate; (+) mild; (−) complete absence; settings: H.G. animals; standard drug
# Procedure: (§1) Before utilizing the test drug for human consumption the pre-clinical safety and efficacy profile of single plant candidate extract as well as in combined form was conducted following standard norms. The biological property of test formulation was validated in streptozotocin (STZ) induced diabetes animal model which also helped in evaluation of vascular complications caused due to diabetes. The effect of test drug was assessed on glucose levels, insulin level, glycosylated hemoglobin, and pro-inflammatory cytokines, and the most important bio-marker neopterin including various neuro-psychological assessments. The mechanism based study clearly indicated the neopterin decreasing potential of test formulation which exerted neuro-protective activity, better glycemic control, anti-atherosclerotic, anti-inflammatory, anti-oxidant effects in STZ induced diabetes among the animals. Further, its therapeutic activity has also been validated in neurogenic dementia and other cognitive deficits associated with diabetes mellitus.
# Urine was collected from each group separately by using animal metabolic cage, volume of urine collected was measured and glucose executed in urine was detected by Benedict reagent. In which 1 ml of urine and 3 ml of B.R. are added and boiled for 5 minute. The change in color was observed as Red (+++), green coloration (++) yellow coloration (+) and unchanged (−).
# Aldose reductase = target: T1, Aldose reductase (Rattus norvegicus, UniProt P07943); assay: Aldose reductase activity; type: in vivo, rats; settings: H.G. animals; standard drug
# T1 construct: from tissue; STZ-induced diabetic animals
# Procedure: (§2) Before utilizing the test drug for human consumption the pre-clinical safety and efficacy profile of single plant candidate extract as well as in combined form was conducted following standard norms. […] The effect of test drug was assessed on glucose levels, insulin level, glycosylated hemoglobin, and pro-inflammatory cytokines, and the most important bio-marker neopterin including various neuro-psychological assessments. […] Aldose Reductase Activity and Glycation of Hemoglobin Following Test Formulation Treatment
# Cholesterol = assay: Anti-hyperlipidemic activity: cholesterol; type: in vivo, rats; settings: H.G. animals, standard drug
# Procedure: as §1
# Insulin = Insulin secretagogues property in diabetic animals; type: in vivo, rats; settings: H.G. animals; standard drug
# Procedure: as §1
# G-6-P = assay: Regulation of key enzymes in gluconeogenesis: G-6-P; type: in vivo, rats; settings: H.G. animals; standard drug
# Procedure: as §1
# F,1-6 bisphosphate = assay: Regulation of key enzymes in gluconeogenesis: F,1-6 bisphosphate; type: in vivo, rats; settings: H.G. animals; standard drug
# Procedure: as §1
# [3] = system: SGOT, SGPT, ALP, ACP, LDH; assay: Hepato-protective effect (SGOT, SGPT, ALP, ACP, LDH); type: in vivo, rats; settings: H.G. animals; standard drug
# Procedure: as §1, with “mellitus. Hepato-Protective Effect of Test Formulation” for “mellitus.”
# Triglycerides = assay: Anti-hyperlipidemic activity on triglycerides; type: in vivo, rats; settings: H.G. animals, standard drug
# Procedure: as §1
# Hemoglobin = assay: Glycation of hemoglobin; type: in vivo, rats; settings: H.G. animals; standard drug
# Procedure: as §2
# Free Fatty Acid (FFA) = assay: Reduction in free fatty acids; type: in vivo, rats; settings: H.G. animals; standard drug
# Procedure: as §1, with “mellitus. Reduction in Free Fatty Acids Following Test Formulation Treatment Treated with test formulation reported FFA elevation in tissues and plasma of diabetic rats” for “mellitus.”
# Glycogen = assay: Restoration of glycogen in liver and skeletal muscle; type: in vivo, rats; settings: H.G. animals; standard drug
# Procedure: Before utilizing the test drug for human consumption the pre-clinical safety and efficacy profile of single plant candidate extract as well as in combined form was conducted following standard norms. […] The effect of test drug was assessed on glucose levels, insulin level, glycosylated hemoglobin, and pro-inflammatory cytokines, and the most important bio-marker neopterin including various neuro-psychological assessments.
# Neopterin = Neopterin decreasing property in experimental diabetes; type: in vivo, rats; settings: H.G. animals, standard drug
# Procedure: as §1
Structure (SMILES),Glyceuria [2],Urine volume [2],Cholesterol (Cholesterol; 0 days),Cholesterol (Cholesterol; 7th day),Cholesterol (Cholesterol; 14th Day),Insulin (Insulin),"G-6-P, Kidney (G-6-P)","G-6-P, Liver (G-6-P)","F,1-6 bisphosphate, Kidney (F,1-6 bisphosphate)","F,1-6 bisphosphate, Liver (F,1-6 bisphosphate)",ACP [3],ALP [3],LDH [3],SGOT [3],SGPT [3],Triglycerides (Triglycerides; 0 days),Triglycerides (Triglycerides; 7th day),Triglycerides (Triglycerides; 14th Day),Glycated Hb (Hemoglobin),Hb (Hemoglobin),also measured
COc1ccc2cc3[n+](cc2c1OC)CCc1cc2c(cc1-3)OCO2 [Berberin],–,–,–,–,–,–,–,–,–,–,–,–,–,–,–,–,–,–,–,–,"Cell viability (βTC6 insulinoma cell; 1 pM): 97.95 ± 1.12; Cell viability (βTC6 insulinoma cell; 10 pM): 96.99 ± 2.20; Cell viability (βTC6 insulinoma cell; 100 pM): 94.60 ± 2.45; Cell viability (βTC6 insulinoma cell; 1 nM): 90.89 ± 1.42; Cell viability (βTC6 insulinoma cell; 10 nM): 88.65 ± 2.60; Cell viability (βTC6 insulinoma cell; 100 nM): 86.30 ± 1.67; Cell viability (βTC6 insulinoma cell; 1 μM): 73.75 ± 2.90; Cell viability (βTC6 insulinoma cell; 10 μM): 67.89 ± 1.65; toxicity to the cells (βTC6 insulinoma cell; βTC6 insulinoma cells, 10 ng/ml): non-toxic; Anti-diabetic activity (glucose consumption) (L6-myotubes; 1 nM): 1.38 ± 0.08; Anti-diabetic activity (glucose consumption) (L6-myotubes; 5 nM): 1.78 ± 0.08; Anti-diabetic activity (glucose consumption) (L6-myotubes; 25 nM): 1.98 ± 0.08; Anti-diabetic activity (glucose consumption) (L6-myotubes; 125 nM): 2.30 ± 0.08; Anti-diabetic activity (glucose consumption) (L6-myotubes; 625 nM): 2.50 ± 0.10; glucose consumption (L6-myotubes; differentiated L6-myotubes, dose dependent): accelerated glucose consumption; increased level of dopamine in whole brain [1]: 31%; increased level of nor-epinephrine in whole brain [1]: 31%; increased level of serotonin in whole brain [1]: 47%"
CN(C)C(=N)N=C(N)N [Metformin],+,8.95 ± 1.70 mL,110.33 ± 9.55 mg/dL,100.00 ± 5.63 mg/dL,88.17 ± 4.79 mg/dL,109.24 ± 12.13 pg/L,41.85 ± 7.71 μm/min/mg of protein,57.49 ± 8.17 μm/min/mg of protein,29.67 ± 5.60 μm/min/mg of protein,34.59 ± 4.90 μm/min/mg of protein,12.05 ± 0.68 U/L,142.00 ± 6.00 U/L,145.11 ± 15.00 U/L,60.00 ± 5.00 U/L,24.25 ± 2.12 U/L,134.77 ± 14.06 mg/dL,123.32 ± 9.51 mg/dL,102.50 ± 11.75 mg/dL,0.44 ± 0.04 mg/g of Hb,10.06 ± 0.06 g/dL,"Aldose reductase (Aldose reductase): 2.60 ± 0.75 μM of NADPH oxidized/g of protein; Free Fatty Acid (FFA), Heart (Free Fatty Acid (FFA)): 446.83 ± 39.65 mg/100 g of tissue; Free Fatty Acid (FFA), Liver (Free Fatty Acid (FFA)): 777.83 ± 53.14 mg/100 g of tissue; Free Fatty Acid (FFA), Plasma (Free Fatty Acid (FFA)): 87.67 ± 7.68 mg/L; Glycogen content, Liver (Glycogen): 1095.03 ± 63.10 nM/Mg of Tissue; Glycogen content, Skeletal muscle (Glycogen): 86.98 ± 12.80 nM/Mg of Tissue; Neopterin (Neopterin; 7th day): 8.90 ± 1.87 nmol/L; Neopterin (Neopterin; 14th Day): 9.11 ± 1.39 nmol/L"
CCc1ccc(CCOc2ccc(CC3SC(=O)NC3=O)cc2)nc1 (stereo not shown) [Pioglitazone],++,13.23 ± 1.18 mL,112.33 ± 7.50 mg/dL,94.23 ± 8.23 mg/dL,81.41 ± 9.94 mg/dL,105.31 ± 9.10 pg/L,45.08 ± 4.76 μm/min/mg of protein,68.56 ± 7.51 μm/min/mg of protein,31.78 ± 3.71 μm/min/mg of protein,44.33 ± 4.29 μm/min/mg of protein,11.95 ± 1.00 U/L,139.50 ± 3.15 U/L,160.00 ± 15.00 U/L,72.00 ± 5.71 U/L,27.00 ± 3.00 U/L,133.35 ± 09.77 mg/dL,117.50 ± 9.02 mg/dL,71.30 ± 6.26 mg/dL,0.53 ± 0.07 mg/g of Hb,10.09 ± 1.85 g/dL,"Free Fatty Acid (FFA), Heart (Free Fatty Acid (FFA)): 379.17 ± 22.06 mg/100 g of tissue; Free Fatty Acid (FFA), Liver (Free Fatty Acid (FFA)): 522.67 ± 37.75 mg/100 g of tissue; Free Fatty Acid (FFA), Plasma (Free Fatty Acid (FFA)): 69.00 ± 5.60 mg/L; Glycogen content, Liver (Glycogen): 975.00 ± 43.14 nM/Mg of Tissue; Glycogen content, Skeletal muscle (Glycogen): 42.02 ± 7.26 nM/Mg of Tissue; Neopterin (Neopterin; 7th day): 9.13 ± 2.10 nmol/L; Neopterin (Neopterin; 14th Day): 8.02 ± 2.01 nmol/L"
